The source of these data is PMC8151276, “An Integrated Approach toward NanoBRET Tracers for Analysis of GPCR Ligand Engagement” (Molecules, 2021).

The target of assay [1] is T1, ACKR3 (Homo sapiens, UniProt P25106).
T1 construct: purchased Promega (in-house HiBiT-GPCR construct library, NanoBRET)
Put plainly: NanoBRET screen HiBiT-ACKR3 in HEK293. The format is binding. How it is done: (§1) Each tracer candidate was screened across the entire library of HiBiT-GPCR constructs using NanoBRET as the detection modality. As depicted in Figure 4A, the specificity of interactions was evaluated through decrease in BRET due to competitive displacement of a bound tracer by excess parental compound. Each tracer was analyzed for binding to each HiBiT-GPCR fusion in the absence and in the presence of competing parental compound. Briefly, HEK293 cells were transfected with HiBiT-GPCR constructs diluted into promoterless DNA to reduce expression and maximize translocation to the cell surface. Each tracer candidate was then screened at concentrations of 1 μM and 0.1 μM across cells expressing these fusions. Cells were treated for 1.5 h with tracer either alone or in the presence of 20 μM competing parental compound (i.e., control). BRET was measured upon addition of purified LgBiT and subsequent complementation with HiBiT genetically fused to a GPCR. The specificity of interactions was assessed through a decrease in BRET signal due to competitive displacement of the bound tracer. To further gauge the robustness of these interactions, the fold response over the control (i.e., BRETtracer/BRETcontrol) was calculated. We chose a 1.5-fold response, which translates to ≥7-fold signal over noise as the minimal threshold required to score an interaction as positive. […]. Below we highlight the screening results obtained for our exemplary fluorescent tracers based on Clozapine, Amitriptyline and AZD1283.
(§2) HiBiT-GPCR DNA constructs were diluted in 10 mM Tris pH 8 to a final concentration of 0.01 μg/μL, arrayed in 96-well plates and stored at −20 °C. For transfection, HEK293 cells were suspended in Opti-MEM (without phenol red) supplemented with 2% fetal bovine serum (Seradigm) and 100 units/mL penicillin–streptomycin (Gibco) at a final concentration of 220,000 cells/mL and dispensed into white 96-well plates at 90 μL/well. Subsequent transfections and screens were carried using an Agilent Bravo Automated Liquid Handling Platform. First, the 96-well HiBiT DNA arrays were diluted 25-fold in Opti-MEM (without serum or phenol red) to a final concentration of 0.0004 μg/μL and 20 μL of the diluted DNAs were transferred into new 96-well plates. Next, promoterless carrier DNA (1 μg/μL) was diluted 25-fold (0.04 μg/μL) and then dispensed into the diluted arrays at 20 μL/well. Following brief mixing, Viafect transfection reagent (Promega) diluted 16-fold into Opti-MEM was dispensed into the plates at 40 μL/well. After mixing by pipetting, plates were incubated for 10 min on the pipetting station deck. The DNA-transfection reagent complexes were then added to plates containing cells. To facilitate the screen, 10 μL of DNA-transfection reagent complexes were added in duplicates to the top 4 and bottom 4 rows, resulting in two identical 48-well arrays per plate. Plates with transfected cells were incubated for 18–20 h at 37 °C/5% CO2. A screen of each tracer across the entire library using two different concentrations requires duplicate plates of transfected cells. Depending on the number of tracers being screened, transfections can be scaled up using the same ratios. The next day, for each tracer, four 20× screening solutions in tracer dilution buffer (Promega) were prepared: two duplicates at final concentration of 20 μM and two duplicates at a final concentration of 2 μM. A competing unmodified compound was added to one of each duplicate at a final concentration of 400 μM. The four resulting solutions were diluted 4-fold in Opti-MEM without serum or phenol red to generate 5× solutions (5 µM and 0.5 µM tracer +/− 100 μM competing compound). To screen the library, a BioTek MultiFlo FX liquid dispenser was used to dispense 22.5 µL of tracer solution to the top 4 rows and 22.5 µL tracer + competing compound solution to the 4 bottom rows. Plates were briefly mixed on an orbital shaker and incubated for 1.5 h at room temperature. […]

Assay [2] concerns the target T2, GALR3 (Homo sapiens, UniProt O60755).
T2 construct: purchased Promega (in-house HiBiT-GPCR construct library, NanoBRET)
T2 sequence (O60755 1-368): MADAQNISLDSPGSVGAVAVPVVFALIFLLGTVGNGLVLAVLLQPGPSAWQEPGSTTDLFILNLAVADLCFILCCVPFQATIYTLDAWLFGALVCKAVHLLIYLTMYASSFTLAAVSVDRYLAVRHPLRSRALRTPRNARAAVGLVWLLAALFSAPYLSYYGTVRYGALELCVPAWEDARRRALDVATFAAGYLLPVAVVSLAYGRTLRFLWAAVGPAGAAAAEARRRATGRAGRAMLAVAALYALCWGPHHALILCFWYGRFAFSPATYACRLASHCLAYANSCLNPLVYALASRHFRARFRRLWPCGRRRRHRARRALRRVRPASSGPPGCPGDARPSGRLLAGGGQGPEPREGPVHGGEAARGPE
Put plainly: NanoBRET screen HiBiT-GALR3 in HEK293. The format is binding. Here is the method: as §1, §2
Background: BRET reads energy transfer from a luciferase to a nearby fluorophore.

T1 sequence (P25106 whole entry): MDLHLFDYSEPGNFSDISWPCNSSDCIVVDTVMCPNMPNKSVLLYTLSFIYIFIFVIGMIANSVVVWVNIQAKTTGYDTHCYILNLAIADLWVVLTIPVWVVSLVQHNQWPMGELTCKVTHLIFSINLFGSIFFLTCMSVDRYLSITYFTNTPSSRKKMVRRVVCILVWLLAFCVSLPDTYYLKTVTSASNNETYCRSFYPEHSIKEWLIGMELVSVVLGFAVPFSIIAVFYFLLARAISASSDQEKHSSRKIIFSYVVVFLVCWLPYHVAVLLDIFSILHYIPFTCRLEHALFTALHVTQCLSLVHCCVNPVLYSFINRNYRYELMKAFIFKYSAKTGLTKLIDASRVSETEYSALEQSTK

Consider `O=C(CCc1ccc2n1[B-](F)(F)[N+]1=C(c3ccc[nH]3)C=CC1=C2)NCc1ccc(C(=O)NCCOCCC(=O)N[C@@H]2CC[C@@]3(O)[C@H]4Cc5ccc(O)c6c5[C@@]3(CCN4CC3CC3)[C@H]2O6)cc1` [Naltrexone-3-NB590], for which the “NanoBRET Fold Response” value in assay [1] (ACKR3, tracer 0.1μM) turned out to be 1.11; in assay [1] (ACKR3, tracer 1μM), 1.07; in assay [2] (GALR3, tracer 0.1μM), 1.03; in assay [2] (GALR3, tracer 1μM), 1.01.
Turning to `CN1CCN(C2=Nc3cc(Cl)ccc3N(CC(=O)NCCOCCOCCOCCOCCNC(=O)CCc3ccc4n3[B-](F)(F)[N+]3=C(c5ccc[nH]5)C=CC3=C4)c3ccccc32)CC1` [Clozapine-c-2-NB590], the “NanoBRET Fold Response” value in assay [1] (ACKR3, 1μM tracer) was 0.92; in assay [2] (GALR3, 0.1μM tracer), 1.01; in assay [2] (GALR3, 1μM tracer), 1.04.
In the case of `O=C(CCOCCOCCOCCOCCNC(=O)CCc1ccc2n1[B-](F)(F)[N+]1=C(c3ccc[nH]3)C=CC1=C2)NCCCN1CCN(C2=Nc3cc(Cl)ccc3Nc3ccccc32)CC1` [Clozapine-a-2-NB590], the “NanoBRET Fold Response” value in assay [1] (ACKR3, 0.1μM tracer) was found to be 1.05; in assay [1] (ACKR3, 1μM tracer) it was 1.06; in assay [2] (GALR3, 0.1μM tracer), 1.02; in assay [2] (GALR3, 1μM tracer), 1.13.
With `CCOC(=O)c1cc(C#N)c(N2CCC(C(=O)NS(=O)(=O)Cc3ccccc3/C=C/C(=O)NCCNC(=O)CCc3ccc4n3[B-](F)(F)[N+]3=C(c5ccc[nH]5)C=CC3=C4)CC2)nc1C` [AZD1283-1-NB590], the “NanoBRET Fold Response” value came out at 1.06 in assay [1] (ACKR3, 0.1μM); 1.19 in assay [1] (ACKR3, 1μM); 0.91 in assay [2] (GALR3, 0.1μM); 1.00 in assay [2] (GALR3, 1μM).
In the case of `COc1ccc2[nH]c(-c3ccc(CNC(=O)CCOCCOCCOCCOCCNC(=O)CCc4ccc5n4[B-](F)(F)[N+]4=C(c6ccc[nH]6)C=CC4=C5)cc3)c(CCNC(C)=O)c2n1` [AzomelatoninICO9-2-NB590], the “NanoBRET Fold Response” value in assay [1] (0.1μM tracer) is reported as 1.40; in assay [1] (1μM tracer), 0.83; in assay [2] (0.1μM tracer), 1.06; in assay [2] (1μM tracer), 1.08.
For the compound `CCCn1c(=O)c2[nH]c(-c3ccc(OCC(=O)NCCNC(=O)CCOCCNC(=O)c4ccc(CNC(=O)CCc5ccc6n5[B-](F)(F)[N+]5=C(c7ccc[nH]7)C=CC5=C6)cc4)cc3)nc2n(CCC)c1=O` [XAC-3-NB590], the “NanoBRET Fold Response” value in assay [1] (ACKR3, tracer 0.1μM) worked out at 1.02; in assay [1] (ACKR3, tracer 1μM), 1.49; in assay [2] (GALR3, tracer 0.1μM), 1.01; in assay [2] (GALR3, tracer 1μM) it was 1.04.
Take `COc1ccccc1N1CCN(CCCCN2C(=O)c3ccc(CNC(=O)CCOCCNC(=O)c4ccc(CNC(=O)CCc5ccc6n5[B-](F)(F)[N+]5=C(c7ccc[nH]7)C=CC5=C6)cc4)cc3C2=O)CC1` [NAN-190-3-NB590]: the “NanoBRET Fold Response” value in assay [1] (ACKR3, tracer 0.1μM) was determined as 0.77; in assay [1] (ACKR3, tracer 1μM), 1.10; in assay [2] (GALR3, tracer 0.1μM), 0.97; in assay [2] (GALR3, tracer 1μM), 0.92.
On to `CN(CCC=C1c2ccccc2CCc2ccccc21)C(=O)CCOCCOCCOCCOCCNC(=O)CCc1ccc2n1[B-](F)(F)[N+]1=C(c3ccc[nH]3)C=CC1=C2` [Amitriptyline-e-2-NB590], for which the “NanoBRET Fold Response” value in assay [1] (tracer at 1μM) came out at 0.94.
Take `O=C(CCc1ccc2n1[B-](F)(F)[N+]1=C(c3ccc[nH]3)C=CC1=C2)NCc1ccc(C(=O)NCCOCCOCCNCC(O)COc2cccc3ccccc23)cc1` (stereo not drawn) [Propranolol-3-NB590]: the “NanoBRET Fold Response” value is 1.04 in assay [1] (ACKR3, 0.1μM); 1.08 in assay [1] (ACKR3, 1μM); 1.05 in assay [2] (GALR3, 0.1μM); 0.91 in assay [2] (GALR3, 1μM).
Consider `COc1ccc2c(n1)c(CCNC(C)=O)cn2CCNC(=O)CCc1ccc2n1[B-](F)(F)[N+]1=C(c3ccc[nH]3)C=CC1=C2` [Azamelatonin-1-NB590], for which the “NanoBRET Fold Response” value in assay [1] (0.1μM tracer) worked out at 0.84; in assay [1] (1μM tracer), 0.95; in assay [2] (0.1μM tracer), 0.81; in assay [2] (1μM tracer), 1.05.
Regarding `O=C(CCOCCOCCOCCOCCNC(=O)CCc1ccc2n1[B-](F)(F)[N+]1=C(c3ccc[nH]3)C=CC1=C2)NCCCN1CCN(C2=Nc3ccccc3Oc3ccc(Cl)cc32)CC1` [Loxapine-a-2-NB590], the “NanoBRET Fold Response” value in assay [1] (ACKR3, tracer 0.1μM) was 0.30; in assay [1] (ACKR3, tracer 1μM), 1.02; in assay [2] (GALR3, tracer 0.1μM), 0.95; in assay [2] (GALR3, tracer 1μM), 1.10.
Regarding `COc1ccccc1N1CCN(CCCCN2C(=O)c3ccc(CNC(=O)CCOCCOCCOCCOCCNC(=O)CCc4ccc5n4[B-](F)(F)[N+]4=C(c6ccc[nH]6)C=CC4=C5)cc3C2=O)CC1` [NAN-190-2-NB590], the “NanoBRET Fold Response” value in assay [1] (ACKR3, tracer 0.1μM) is given as 1.09; in assay [2] (GALR3, tracer 0.1μM), 0.97; in assay [2] (GALR3, tracer 1μM), 1.10.
`CC(C)N(CC[C@H](c1ccccc1)c1cc(CCNC(=O)c2ccc(CNC(=O)CCc3ccc4n3[B-](F)(F)[N+]3=C(c5ccc[nH]5)C=CC3=C4)cc2)ccc1O)C(C)C` [Tolterodine-BZ-NB590]: the “NanoBRET Fold Response” value was 0.88 in assay [1] (ACKR3, tracer 0.1μM); 0.96 in assay [1] (ACKR3, tracer 1μM); 1.09 in assay [2] (GALR3, tracer 0.1μM); 1.00 in assay [2] (GALR3, tracer 1μM).
The like results for `O=C(CCc1ccc2n1[B-](F)(F)[N+]1=C(c3ccc[nH]3)C=CC1=C2)NCCOCCOCCNC(=O)OCCOCCN1CCN(C2=Nc3ccccc3Sc3ccccc32)CC1` [Quetiapine-a-2-NB590] were, in that order, 0.96, 0.96, 1.02 and 0.73.
For `CN1CCN(C2=Nc3cc(Cl)ccc3Nc3ccc(CNC(=O)CCOCCOCCOCCOCCNC(=O)CCc4ccc5n4[B-](F)(F)[N+]4=C(c6ccc[nH]6)C=CC4=C5)cc32)CC1` [Clozapine-b-2-NB590], the “NanoBRET Fold Response” value in assay [1] (ACKR3, 0.1μM tracer) stood at 0.95; in assay [1] (ACKR3, 1μM tracer), 1.05; in assay [2] (GALR3, 0.1μM tracer), 0.93; in assay [2] (GALR3, 1μM tracer), 0.91.
Regarding `CC(C)N(CC[C@H](c1ccccc1)c1cc(CCNC(=O)CCOCCOCCOCCOCCNC(=O)CCc2ccc3n2[B-](F)(F)[N+]2=C(c4ccc[nH]4)C=CC2=C3)ccc1O)C(C)C` [Tolterodine-2-NB590], the “NanoBRET Fold Response” value in assay [1] (ACKR3, tracer 0.1μM) is 0.96; in assay [1] (ACKR3, tracer 1μM), 1.00; in assay [2] (GALR3, tracer 0.1μM) it was 0.76; in assay [2] (GALR3, tracer 1μM) it was 0.78.
Regarding `CN(C)CCC=C1c2ccccc2CCc2ccc(C(=O)NCCNC(=O)CCOCCOCCOCCOCCNC(=O)CCc3ccc4n3[B-](F)(F)[N+]3=C(c5ccc[nH]5)C=CC3=C4)cc21` [Amitriptyline-a-2-NB590], the “NanoBRET Fold Response” value in assay [1] (tracer at 0.1μM) is on record as 1.15; in assay [1] (tracer at 1μM), 0.99; in assay [2] (tracer at 0.1μM), 0.98; in assay [2] (tracer at 1μM), 1.04.
